Measured values from article PMC12133982, “Predominant T-cell epitopes of SARS-CoV-2 restricted by multiple prevalent HLA-B and HLA-C allotypes in Northeast Asia” (Frontiers in Immunology, 2025).
Peptide text beside a SMILES is read from it.

Columns and labels:
[1] = biological target: HLA-C0303 (Homo sapiens, UniProt P10321, A176E/A330V/A97T/C25G/C350S/D114A/D33Y/E197K/G115R/L119I/L127V/L171W/L218V/M285V/M309V/M331V/P208H/Q277E/Q291P/R243W/R45H/S123Y/S140Y/S297R/S48A/T118I/T187L/T329A/T363A/V319A); assay: Competitive peptide binding assay, CIR-C0303; conditions: HMy2.CIR-C0303 cells, reference Cy5-[…], class from inhibition at 5 and 15 μM, flow cytometry MFI; read-out: Binding affinity with HLA-C0303
Protocol: (§1) Then, competitive peptide binding assays were performed.

[2] = biological target: HLA-C0702 (Homo sapiens, UniProt P10321); assay: Competitive peptide binding assay, CIR-C0702
[3] = biological target: HLA-C0801 (Homo sapiens, UniProt P10321, A176T/A330V/A97T/C350S/D114A/D138N/D33Y/E201K/E299G/L171W/L218V/M285V/M309V/M331V/P208H/Q277E/Q291P/R59Q/S123Y/S140F/S297R/S48A/T329A/T363A/V319A/V328M); assay: Competitive peptide binding assay, CIR-C0801; conditions: HMy2.CIR-C0801 cells, reference Cy5-[…], class from inhibition at 5 and 15 μM, flow cytometry MFI; read-out: Binding affinity with HLA-C0801
Protocol: as §1

[4] = biological target: HLA-C0102 (Homo sapiens, UniProt P10321, A176E/A330V/A35S/A97T/C350S/D114A/D33F/L171W/L180R/L218V/M285V/M309V/M331V/P208H/Q277E/Q291P/R121W/R243W/R30K/S123C/S140Y/S297R/T329A/T363A/V272M/V319A); assay: Competitive peptide binding assay, CIR-C0102; conditions: HMy2.CIR-C0102 cells, reference Cy5-[…], class from inhibition at 5 and 15 μM, flow cytometry MFI; read-out: Binding affinity with HLA-C0102
Protocol: as §1

[5] = biological target: HLA-C0302 (Homo sapiens, UniProt P10321, A176E/A330V/A97T/C25G/C350S/D114A/D33Y/E197K/L127V/L171W/L218V/M285V/M309V/M331V/P208H/Q277E/Q291P/R243W/R45H/S123Y/S297R/S48A/T118I/T187L/T329A/T363A/V319A); assay: Competitive peptide binding assay, CIR-C0302; conditions: HMy2.CIR-C0302 cells, reference Cy5-[…], class from inhibition at 5 and 15 μM, flow cytometry MFI; read-out: Binding affinity with HLA-C0302
Protocol: as §1

[6] = biological target: HLA-C1502 (Homo sapiens, UniProt P10321, A176E/A330V/A97T/C350S/D114A/D33Y/K90N/L119I/L171W/L218V/M285V/M309V/M331V/N104K/P208H/Q277E/Q291P/R45H/S101N/S123Y/S140L/S297R/S48A/T118I/T329A/T363A/V319A/V328M/Y137H); assay: Competitive peptide binding assay, CIR-C1502; conditions: HMy2.CIR-C1502 cells, reference Cy5-[…], class from inhibition at 5 and 15 μM, flow cytometry MFI; read-out: Binding affinity with HLA-C1502
Protocol: as §1

[7] = biological target: HLA-C0701 (Homo sapiens, UniProt P10321, K90N/S123Y); assay: Competitive peptide binding assay, CIR-C0701; conditions: HMy2.CIR-C0701 cells, reference Cy5-[…], class from inhibition at 5 and 15 μM, flow cytometry MFI; read-out: Binding affinity with HLA-C 0701
Protocol: as §1

[8] = biological target: HLA-C0602 (Homo sapiens, UniProt P10321, A176E/A330V/C350S/L171W/L180W/L218V/M285V/M309V/M331V/N104K/P208H/Q277E/Q291P/R121W/S101N/S123Y/S297R/T329A/T363A/V319A/V328M); assay: Competitive peptide binding assay, CIR-C0602
[9] = biological target: HLA-C0304 (Homo sapiens, UniProt P10321, A176E/A330V/A97T/C25G/C350S/D114A/D33Y/E197K/L119I/L127V/L171W/L218V/M285V/M309V/M331V/P208H/Q277E/Q291P/R243W/R45H/S123Y/S140Y/S297R/S48A/T118I/T187L/T329A/T363A/V319A); assay: Competitive peptide binding assay, CIR-C0304; conditions: HMy2.CIR-C0304 cells, reference Cy5-[…], class from inhibition at 5 and 15 μM, flow cytometry MFI; read-out: Binding affinity with HLA-C0304
Protocol: as §1

[10] = biological target: HLA-C1402 (Homo sapiens, UniProt P10321, A176E/A330V/A35S/A97T/C350S/D114A/D33S/L171W/L180R/L218V/M285V/M309V/M331V/P208H/Q277E/Q291P/R121W/R243W/S123F/S297R/S48A/T329A/T363A/V319A); assay: Competitive peptide binding assay, CIR-C1402; conditions: HMy2.CIR-C1402 cells, reference Cy5-[…], class from inhibition at 5 and 15 μM, flow cytometry MFI; read-out: Binding affinity with HLA-C1402
Protocol: as §1

[11] = biological target: HLA-C1202 (Homo sapiens, UniProt P10321, A176E/A330V/C350S/D114A/D33Y/L171W/L180W/L218V/M285V/M309V/M331V/P208H/Q277E/Q291P/S123Y/S297R/S48A/T329A/T363A/V319A/V328M); assay: Competitive peptide binding assay, CIR-C1202; conditions: HMy2.CIR-C1202 cells, reference Cy5-[…], class from inhibition at 5 and 15 μM, flow cytometry MFI; read-out: Binding affinity with HLA-C1202
Protocol: as §1

[12] = biological target: HLA-B4601 (Homo sapiens, UniProt P01889, A329T/A93R/C349S/D201E/E100V/E187L/E204Q/E69M/E70A/I90K/K202T/N87E/R155S/R180W/S121R/S35A/S48A/V306I/V36M/Y140S); assay: Competitive peptide binding assay, CIR-B4601; conditions: HMy2.CIR-B4601 cells, reference Cy5-[…], class from inhibition at 5 and 15 μM, flow cytometry MFI; read-out: Binding affinity with HLA-B4601
Protocol: as §1

[13] = biological target: HLA-B1302 (Homo sapiens, UniProt P01889, A65T/A93T/A95T/D138N/D201E/D98Y/E176V/E204Q/E69M/E70A/G107R/K202T/L105A/L119W/N104T/N87E/Q94N/R106L/R155S/R169L/R180L/S101N/S121T/S35A/S48T/V127L/V36M/Y140L/Y91S); assay: Competitive peptide binding assay, CIR-B1302; conditions: HMy2.CIR-B1302 cells, reference Cy5-MMWYWGPSL, class from inhibition at 5 and 15 μM, flow cytometry MFI; read-out: Binding affinity with HLA-B1302
Protocol: as §1

[14] = biological target: HLA-B4801 (Homo sapiens, UniProt P01889, A269T/A93T/A95T/D138N/D98Y/E176V/N87E/Q94N/R180L/T167S/W171L/Y91S); assay: Competitive peptide binding assay, CIR-B4801; conditions: HMy2.CIR-B4801 cells, reference Cy5-[…], class from inhibition at 5 and 15 μM, flow cytometry MFI; read-out: Binding affinity with HLA-B4801
Protocol: as §1

[15] = biological target: HLA-B1502 (Homo sapiens, UniProt P01889, A329T/A93T/A95T/C349S/D201E/D98Y/E187L/E204Q/E69M/E70A/H137Y/K202T/L119I/Q94N/R155S/R180L/S121R/S35A/S48A/T118I/V306I/V36M/Y140S/Y91S); assay: Competitive peptide binding assay, CIR-B1502; conditions: HMy2.CIR-B1502 cells, reference Cy5-[…], class from inhibition at 5 and 15 μM, flow cytometry MFI; read-out: Binding affinity with HLA-B1502
Protocol: as §1

[16] = biological target: HLA-B5201 (Homo sapiens, UniProt P01889, A329T/A93T/A95T/C349S/D138N/D201E/D98Y/E187L/E204Q/E69T/G107R/I218V/K202T/L105A/L119W/N104I/N87E/Q94N/R106L/R155S/R180L/S101N/S121T/S35A/S48A/V306I/V36M/Y195H/Y91S); assay: Competitive peptide binding assay, CIR-B5201; conditions: HMy2.CIR-B5201 cells, reference Cy5-[…], class from inhibition at 5 and 15 μM, flow cytometry MFI; read-out: Binding affinity with HLA-B5201
Protocol: as §1

[17] = biological target: HLA-B1501 (Homo sapiens, UniProt P01889, A329T/A93T/A95T/C349S/D201E/D98Y/E187L/E204Q/E69M/E70A/K202T/N87E/Q94N/R155S/R180W/S121R/S35A/S48A/V306I/V36M/Y140S/Y91S); assay: Competitive peptide binding assay, CIR-B1501; conditions: HMy2.CIR-B1501 cells, reference Cy5-[…], class from inhibition at 5 and 15 μM, flow cytometry MFI; read-out: Binding affinity with HLA-B1501
Protocol: as §1

[18] = biological target: HLA-B5101 (Homo sapiens, UniProt P01889, A329T/A93T/A95T/C349S/D138N/D201E/D98Y/E187L/E204Q/E69T/G107R/I218V/K202T/L105A/L119W/N104I/Q94N/R106L/R155S/R180L/S101N/S121T/S35A/S48A/V306I/V36M/Y195H/Y91F); assay: Competitive peptide binding assay, CIR-B5101; conditions: HMy2.CIR-B5101 cells, reference Cy5-[…], class from inhibition at 5 and 15 μM, flow cytometry MFI; read-out: Binding affinity with HLA-B5101
Protocol: as §1

[19] = biological target: HLA-B5801 (Homo sapiens, UniProt P01889, A329T/C349S/D201E/D98Y/E176V/E187L/E204Q/E69T/G107R/I218V/I90N/K202T/L105A/L119I/N104I/N87E/Q89R/Q94S/R106L/R155S/R180L/R86G/S101N/S121R/S35A/S48A/T118I/V127L/V306I/V36M/Y140S/Y91M); assay: Competitive peptide binding assay, CIR-B5801; conditions: HMy2.CIR-B5801 cells, reference Cy5-[…], class from inhibition at 5 and 15 μM, flow cytometry MFI; read-out: Binding affinity with HLA-B5801
Protocol: as §1

[20] = biological target: T1, HLA-B0702 (Homo sapiens, UniProt P01889); assay: Competitive peptide binding assay, CIR-B0702; conditions: HMy2.CIR-B0702 cells, reference Cy5-[…], class from inhibition at 5 and 15 μM, flow cytometry MFI
T1 construct: expressed in transfected cells; host or cells: HMy2.CIR
Protocol: as §1

| Structure (SMILES) | IC50 [1] | IC50 [2] | IC50 [3] | IC50 [4] | IC50 [6] | IC50 [16] | IC50 [18] | further results |
| --- | --- | --- | --- | --- | --- | --- | --- | --- |
| C[C@H](NC(=O)[C@H](CO)NC(=O)[C@H](CO)NC(=O)[C@@H](N)Cc1ccc(O)cc1)C(=O)N[C@@H](CC(N)=O)C(=O)N[C@@H](CC(N)=O)C(=O)N[C@@H](CS)C(=O)N[C@H](C(=O)N[C@@H](Cc1ccccc1)C(=O)O)[C@@H](C)O [Epitope M64] (H-YSSANNCTF-OH; N-terminus and C-terminus assumed) | > 15 µM | > 15 µM | > 15 µM | > 15 µM | < 5 µM |  |  | IC50 [5]: 5 to 15 µM |
| CC(C)[C@H](NC(=O)[C@@H](N)Cc1ccccc1)C(=O)N[C@@H](CO)C(=O)N[C@@H](CC(N)=O)C(=O)NCC(=O)N[C@H](C(=O)N[C@@H](Cc1c[nH]cn1)C(=O)N[C@@H](Cc1c[nH]c2ccccc12)C(=O)N[C@@H](Cc1ccccc1)C(=O)O)[C@@H](C)O [Epitope M68] (H-FVSNGTHWF-OH; N-terminus and C-terminus assumed) |  | > 15 µM | > 15 µM |  | 5 to 15 µM |  |  | IC50 [7]: > 15 µM; IC50 [8]: > 15 µM |
| CC(C)C[C@H](NC(=O)[C@H](CCC(=O)O)NC(=O)[C@H](Cc1ccccc1)NC(=O)[C@H](CO)NC(=O)[C@H](CC(C)C)NC(=O)[C@@H](NC(=O)[C@@H](NC(=O)[C@@H](NC(=O)[C@H](CCCNC(=N)N)NC(=O)[C@@H](N)Cc1ccc(O)cc1)C(C)C)C(C)C)C(C)C)C(=O)O [Epitope M156] (H-YRVVVLSFEL-OH; N-terminus and C-terminus assumed) | > 15 µM |  |  | 5 to 15 µM |  |  |  | IC50 [9]: > 15 µM; IC50 [10]: > 15 µM; IC50 [11]: > 15 µM |
| CC[C@H](C)[C@H](NC(=O)CNC(=O)[C@H](CC(=O)O)NC(=O)[C@H](CCCCN)NC(=O)[C@H](CC(N)=O)NC(=O)[C@H](C)NC(=O)CN)C(=O)N[C@H](C(=O)N[C@@H](Cc1c[nH]c2ccccc12)C(=O)O)[C@@H](C)CC [Epitope Y301] (H-GANKDGIIW-OH; N-terminus and C-terminus assumed) |  |  |  |  |  | > 15 µM | > 15 µM | IC50 [12]: 5 to 15 µM; IC50 [13]: > 15 µM; IC50 [14]: > 15 µM; IC50 [15]: > 15 µM; IC50 [17]: > 15 µM; IC50 [19]: < 5 µM; IC50 [20]: 5 to 15 µM |
| CC(C)C[C@H](NC(=O)[C@H](CCC(N)=O)NC(=O)[C@H](CC(=O)O)NC(=O)[C@H](C)NC(=O)[C@@H](N)Cc1c[nH]cn1)C(=O)N[C@H](C(=O)N1CCC[C@H]1C(=O)N[C@H](C(=O)N[C@@H](Cc1c[nH]c2ccccc12)C(=O)O)[C@@H](C)O)[C@@H](C)O [Epitope Y313] (H-HADQLTPTW-OH; N-terminus and C-terminus assumed) |  |  |  |  |  | 5 to 15 µM | > 15 µM |  |
